Experimental findings from US20100152188A1, “Novel Heterocyclic Compounds” (priority 2005, published 2010) are described below.

The structures appear in SMILES notation.

One test deals with HDAC. In words: HDAC inhibition. The test is classed as biochemical. To be noted: for HDAC Inhibition 1 μM: compound at 1 μM; for HDAC Inhibition 10 μM: compound at 10 μM.
Another test deals with MDAMB-231/U 251. In words: Anti-cancer screen (MTT), MDAMB-231/U 251. The test is classed as cell-based. To be noted: for CC50: 48 h, read-out: MDAMB-231/U 251 LC50; for GI50 / IC (TGI): 48 hours with compound, MTT, tested at 0.01-100 µM. An outline of the steps: (§1)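 Seed cells at 5000 per well and let them attach for 24 h; add compound at five final concentrations from 0.01 to 100 µM; incubate 48 h; add MTT for 3 h, dissolve formazan in DMSO and read at 570 nm. GI50, TGI and LC50 follow from percent growth relative to T0 and untreated wells.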

In another test the test system is HCT116. Briefly: Anti-cancer screen (MTT), HCT116. To be noted: Homo sapiens, HCT-116, 48 hours with compound, tested at 0.01-100 µM. Type of test: cell-based. The procedure, abridged: as §1
In another test the test system is NCIH460. In words: Anti-cancer screen (MTT), NCIH460. Type of test: cell-based. To be noted: Homo sapiens, NCI-H460, 48 hours with compound, tested at 0.01-100 µM. The procedure, abridged:
as §1

The subject of test [1] is NCIH460, HCT116, MDAMB-231/U 251. Briefly: Anti-cancer screen, mean GI50 over the cell lines. The conditions noted are these: in µM. The test is classed as cell-based. The procedure, abridged:
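Growth was scored by MTT absorbance at 570 nm relative to control wells and a pre-treatment T0 reading. Compounds were tested at five final concentrations (0.01–100 µM, triplicate) for 48 h on NCIH460, HCT116 and U251 cells, each plated at 5000 cells/well 24 h before dosing.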

Broadly, the IC50 is the concentration that gives 50% inhibition. Low readings indicate higher potency, high ones lower potency. By GI50 is commonly meant the concentration that inhibits growth by half. As a reminder, the LC50 is the concentration lethal to half of the exposed cells or organisms. As for `O=C(NCc1ccc(C(=O)NO)cc1)OCc1cccs1` [Example 28, 2-Thienylmethyl{4-[(hydroxyamino)carbonyl]benzyl}carbamate], in the test on HDAC, 0.123 µM corresponded to half-maximal inhibition (IC50), the “HDAC Inhibition 1 μM” value turned out to be 50.8 and the “HDAC Inhibition 10 μM” value is reported as 63.3. Further, in the test on MDAMB-231/U 251, the CC50 was determined as 70 µM, the GI50 was determined as 5 µM and the IC (TGI) amounted to 30 µM. Also, in the test with HCT116, the GI50 is 5 µM, the IC (TGI) was 15 µM and the LC50 (concentration giving 50% net cell kill relative to T0) was 62 µM. Besides, in the test on NCIH460, the GI50 stood at 30 µM, the IC (TGI) worked out at 51 µM and the LC50 was above 100 µM. For the same compound, the “Mean GI50” value in test [1] stood at 13.
Consider `O=C(NCc1ccc(C(=O)NO)cc1)OCc1nc2ccccc2s1` [Example 30, 1,3-Benzothiazol-2-ylmethyl{4-[(hydroxyamino)carbonyl]benzyl}carbamate], for which, in the test with HDAC, it took 0.14 µM to reach half-maximal inhibition (IC50), the “HDAC Inhibition 1 μM” value was 84 and the “HDAC Inhibition 10 μM” value was determined as 84.6. In addition, in the test with MDAMB-231/U 251, the CC50 was above 100 µM, the GI50 turned out to be 0.78 µM and the IC (TGI) was above 100 µM. For the same compound, in the test on HCT116, the GI50 came out at 0.23 µM, the IC (TGI) is 7 µM and the LC50 (concentration giving 50% net cell kill relative to T0) came to 61 µM. In the test on NCIH460, the GI50 came out at 0.02 µM, the IC (TGI) was determined as 0.05 µM and the LC50 amounted to 73 µM. In test [1], the “Mean GI50” value worked out at 0.3.
Take `O=C(NCc1ccc(C(=O)NO)cc1)OCc1nccs1` [Example 31, 1,3-Thiazol-2-ylmethyl{4-[(hydroxyamino)carbonyl]benzyl}carbamate]: in the test with HDAC, the IC50 was found to be 0.13 µM, the “HDAC Inhibition 1 μM” value came out at 82.6 and the “HDAC Inhibition 10 μM” value is on record as 87.4. Also, in the test on MDAMB-231/U 251, the CC50 was above 100 µM, the GI50 is 32 µM and the IC (TGI) is above 100 µM. In addition, in the test with HCT116, the GI50 was determined as 0.02 µM, the IC (TGI) was 0.97 µM and the LC50 (concentration giving 50% net cell kill relative to T0) came out at 39 µM. Also, in the test on NCIH460, the GI50 stood at 0.02 µM, the IC (TGI) was 0.9 µM and the LC50 came out at 92 µM. In test [1], the “Mean GI50” value was found to be 10.7.
On to `O=C(NCc1ccc(C(=O)NO)cc1)OCC1COc2ccccc2O1` (stereo not shown) [Example 32, 2,3-Dihydro-1,4-benzodioxin-2-ylmethyl {4-[(hydroxyamino)carbonyl]benzyl}carbamate], for which, in the test with HDAC, the “HDAC Inhibition 1 μM” value came out at 78.12 and the “HDAC Inhibition 10 μM” value is 92.67. Moreover, in the test with MDAMB-231/U 251, the CC50 was determined as 80 µM, the GI50 was determined as 11 µM and the IC (TGI) amounted to 45 µM. In the test with HCT116, the GI50 is 5 µM, the IC (TGI) amounted to 25 µM and the LC50 (concentration giving 50% net cell kill relative to T0) is above 100 µM. For the same compound, in the test on NCIH460, the GI50 amounted to 5 µM, the IC (TGI) was 42 µM and the LC50 was 95 µM. Further, the “Mean GI50” value in test [1] was found to be 7.
With `O=C(NCc1ccc(C(=O)NO)cc1)OCc1nc2ccccc2[nH]1` [Example 33, 1H-Benzimidazol-2-ylmethyl{4-[(hydroxyamino)carbonyl]benzyl}carbamate], in the test on HDAC, the IC50 was 0.25 µM, the “HDAC Inhibition 1 μM” value is recorded as 82.77 and the “HDAC Inhibition 10 μM” value amounted to 92.11. Further, in the test on MDAMB-231/U 251, the CC50 was found to be 60 µM, the GI50 was 3 µM and the IC (TGI) turned out to be 8 µM. In the test on HCT116, the GI50 came out at 4.5 µM, the IC (TGI) worked out at 20 µM and the LC50 (concentration giving 50% net cell kill relative to T0) was above 100 µM. For the same compound, in the test on NCIH460, the GI50 amounted to 1 µM, the IC (TGI) came to 68 µM and the LC50 is above 100 µM. In addition, the “Mean GI50” value in test [1] was 2.8.
As to `O=C(NCc1ccc(C(=O)NO)cc1)OCn1nnc2ccccc21` [Example 34, 1H-1,2,3-Benzotriazol-1-ylmethyl{4-[(hydroxyamino)carbonyl]benzyl}carbamate], in the test on HDAC, the “HDAC Inhibition 1 μM” value turned out to be 62.1 and the “HDAC Inhibition 10 μM” value amounted to 98.6. In the test on MDAMB-231/U 251, the CC50 was above 100 µM, the GI50 came out at 30 µM and the IC (TGI) is above 100 µM. Also, in the test on HCT116, the GI50 came out at 60 µM, the IC (TGI) is above 100 µM and the LC50 (concentration giving 50% net cell kill relative to T0) is above 100 µM. Further, in the test on NCIH460, the GI50 was determined as 58 µM, the IC (TGI) is above 100 µM and the LC50 is above 100 µM. For the same compound, in test [1], the “Mean GI50” value is on record as 49.3.
For the compound `O=C(NCc1ccc(C(=O)NO)cc1)OCc1ccnc2ccccc12` [Example 37, Quinolin-4-ylmethyl{4-[(hydroxyamino)carbonyl]benzyl}carbamate], in the test with HDAC, the “HDAC Inhibition 1 μM” value turned out to be 67.04 and the “HDAC Inhibition 10 μM” value is recorded as 85.01. In the test on MDAMB-231/U 251, the CC50 worked out at 95 µM, the GI50 stood at 4 µM and the IC (TGI) came out at 18 µM. Further, in the test on HCT116, the GI50 stood at 6 µM, the IC (TGI) came out at 20 µM and the LC50 (concentration giving 50% net cell kill relative to T0) turned out to be 65 µM. Besides, in the test on NCIH460, the GI50 stood at 30 µM, the IC (TGI) is 58 µM and the LC50 worked out at 90 µM. Moreover, the “Mean GI50” value in test [1] is 13.3.
On to `CNC(=O)c1ccc(CNC(=O)OCc2cccs2)cc1` [Example 40, 2-Thienylmethyl{4-[(methylamino)carbonyl]benzyl}carbamate], for which, in the test on HDAC, the “HDAC Inhibition 1 μM” value is listed as −1.9 and the “HDAC Inhibition 10 μM” value turned out to be 8.6. Also, in the test with MDAMB-231/U 251, the CC50 is above 100 µM, the GI50 amounted to 14 µM and the IC (TGI) is above 100 µM. In the test on HCT116, the GI50 is 100 µM, the IC (TGI) was above 100 µM and the LC50 (concentration giving 50% net cell kill relative to T0) was above 100 µM. Further, in the test on NCIH460, the GI50 was above 100 µM, the IC (TGI) is above 100 µM and the LC50 was above 100 µM. For the same compound, the “Mean GI50” value in test [1] is above 100.
As for `CONC(=O)c1ccc(CNC(=O)OCc2cccs2)cc1` [Example 43, 2-Thienylmethyl{4-[(methoxyamino)carbonyl]benzyl}carbamate], in the test on HDAC, the “HDAC Inhibition 1 μM” value turned out to be 1.9 and the “HDAC Inhibition 10 μM” value is reported as 8.10. Further, in the test with MDAMB-231/U 251, the CC50 is above 100 µM, the GI50 is above 100 µM and the IC (TGI) is above 100 µM. In addition, in the test on HCT116, the GI50 is above 100 µM, the IC (TGI) was above 100 µM and the LC50 (concentration giving 50% net cell kill relative to T0) is above 100 µM. In the test on NCIH460, the GI50 is above 100 µM, the IC (TGI) was above 100 µM and the LC50 was above 100 µM. Further, the “Mean GI50” value in test [1] is above 100.
`CN(O)C(=O)c1ccc(CNC(=O)OCc2c(F)cc(F)cc2F)cc1` [Example 45, 2,4,6-Trifluorobenzyl(4-{[hydroxy(methyl)amino]carbonyl}benzyl)carbamate]: in the test with HDAC, the “HDAC Inhibition 1 μM” value is listed as 4.28 and the “HDAC Inhibition 10 μM” value is recorded as −0.76. Besides, in the test on MDAMB-231/U 251, the CC50 was above 100 µM, the GI50 stood at 2.5 µM and the IC (TGI) came to 65 µM. Further, in the test on HCT116, the GI50 was above 100 µM, the IC (TGI) is above 100 µM and the LC50 (concentration giving 50% net cell kill relative to T0) was above 100 µM. Besides, in the test on NCIH460, the GI50 came out at 90 µM, the IC (TGI) is above 100 µM and the LC50 is above 100 µM. For the same compound, the “Mean GI50” value in test [1] was above 100.
For `CN(O)C(=O)c1ccc(CNC(=O)OCc2cccs2)cc1` [Example 46, 2-Thienylmethyl(4-{[hydroxy(methyl)amino]carbonyl}benzyl)carbamate], in the test with HDAC, the “HDAC Inhibition 1 μM” value is reported as −4.01 and the “HDAC Inhibition 10 μM” value is on record as −2.70. Further, in the test with MDAMB-231/U 251, the CC50 is above 100 µM, the concentration for 50% growth inhibition (GI50) amounted to 40 µM and the IC (TGI) stood at 90 µM. In the test with HCT116, the concentration for 50% growth inhibition (GI50) came out at 88 µM, the IC (TGI) is above 100 µM and the LC50 (concentration giving 50% net cell kill relative to T0) was above 100 µM. In addition, in the test on NCIH460, the GI50 was 70 µM, the IC (TGI) is above 100 µM and the LC50 was above 100 µM. Besides, in test [1], the “Mean GI50” value turned out to be 66.
With `CN(O)C(=O)c1ccc(CNC(=O)OCc2c(F)c(F)c(F)c(F)c2F)cc1` [Example 47, Tentafluorobenzyl(4-{[hydroxy(methyl)amino]carbonyl}benzyl)carbamate], in the test with HDAC, the “HDAC Inhibition 1 μM” value was −5.89 and the “HDAC Inhibition 10 μM” value was −2.12. Moreover, in the test with MDAMB-231/U 251, the CC50 was above 100 µM, the GI50 was found to be 37 µM and the IC (TGI) stood at 74 µM. In addition, in the test with HCT116, the GI50 was 52 µM, the IC (TGI) is above 100 µM and the LC50 (concentration giving 50% net cell kill relative to T0) is above 100 µM. In the test with NCIH460, the GI50 was found to be 56 µM, the IC (TGI) was above 100 µM and the LC50 is above 100 µM. In addition, the “Mean GI50” value in test [1] came out at 48.33.
Regarding `CON(C)C(=O)c1ccc(CNC(=O)OCc2cccs2)cc1` [Example 48, 2-Thienylmethyl(4-{[methoxy(methyl)amino]carbonyl}benzyl)carbamate], in the test on HDAC, the “HDAC Inhibition 1 μM” value was 4.8 and the “HDAC Inhibition 10 μM” value was 1.9. Moreover, in the test on MDAMB-231/U 251, the CC50 was above 100 µM, the GI50 is 0.03 µM and the IC (TGI) is 57 µM. In the test on HCT116, the GI50 was determined as 4.3 µM, the IC (TGI) was found to be 9 µM and the LC50 (concentration giving 50% net cell kill relative to T0) came to 65 µM. Moreover, in the test with NCIH460, the GI50 was 1 µM, the IC (TGI) was 31 µM and the LC50 is above 100 µM. In test [1], the “Mean GI50” value was determined as 1.8.
